Tests used:
KOPr [1] = target: T1, KOPr (Homo sapiens, UniProt P41145); assay: [35S]GTPγS binding, CHO membranes, standard U69593; type: biochemical; settings: for Kd: Ke/nM KOPr, antagonist Ke versus U69593, single agonist concentration; for fold more potent as KOPr antagonist than 17-methyl equivalent: ratio of Ke: 5k vs 5b, 5i vs 5e
MOPr [2] = assay: Guinea pig ileum; settings: 7b Ke in GPI (ref 8) vs 5k Ke in [35S]GTPγS assay
MOPr [3] = settings: read-out: Ke MOPr antagonist activity in GPI assay; GPI isolated tissue; cited from earlier work
MOPr [4] = target: T2, MOPr (Homo sapiens, UniProt P35372); assay: [35S]GTPγS binding, CHO membranes, standard DAMGO; type: biochemical; settings: Ke/nM MOPr, antagonist Ke versus DAMGO, single agonist concentration
T2 sequence (P35372 whole entry): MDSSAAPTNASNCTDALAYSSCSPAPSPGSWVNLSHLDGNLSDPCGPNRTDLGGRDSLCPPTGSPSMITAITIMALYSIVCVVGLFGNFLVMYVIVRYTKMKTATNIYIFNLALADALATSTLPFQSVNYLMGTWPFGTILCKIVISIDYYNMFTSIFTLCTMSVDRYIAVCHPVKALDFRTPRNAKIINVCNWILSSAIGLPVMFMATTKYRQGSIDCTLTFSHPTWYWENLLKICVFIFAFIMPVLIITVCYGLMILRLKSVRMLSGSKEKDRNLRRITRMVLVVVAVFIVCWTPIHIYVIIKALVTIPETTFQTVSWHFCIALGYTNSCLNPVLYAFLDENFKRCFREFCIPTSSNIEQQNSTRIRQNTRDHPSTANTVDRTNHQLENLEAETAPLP

DOPr [5] = target: T3, DOPr (Homo sapiens, UniProt P41143); assay: [35S]GTPγS binding, CHO membranes, standard DPDPE; type: biochemical; settings: for Kd: Ke/nM DOPr, antagonist Ke versus DPDPE, single agonist concentration
T3 sequence (P41143 whole entry): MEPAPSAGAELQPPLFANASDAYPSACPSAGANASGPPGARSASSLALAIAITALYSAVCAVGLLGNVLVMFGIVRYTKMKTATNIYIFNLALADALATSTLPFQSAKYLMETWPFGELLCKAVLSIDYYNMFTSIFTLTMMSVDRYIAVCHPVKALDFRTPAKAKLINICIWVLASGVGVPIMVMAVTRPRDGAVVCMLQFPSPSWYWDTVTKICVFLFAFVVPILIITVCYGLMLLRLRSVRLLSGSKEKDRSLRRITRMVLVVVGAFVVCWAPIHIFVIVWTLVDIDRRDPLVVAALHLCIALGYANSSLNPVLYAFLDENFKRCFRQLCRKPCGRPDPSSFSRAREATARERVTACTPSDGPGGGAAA

DOPr [6] = settings: cited from earlier work
MOPr [7] = target: T2, MOPr; type: binding
KOPr [8] = target: T1, KOPr; type: binding
DOPr [9] = target: T3, DOPr; type: binding
MOPr [10] = settings: read-out: EC50 MOPr partial agonist activity in [35S]GTPγS assay; cited from earlier work

T1 sequence (P41145 whole entry): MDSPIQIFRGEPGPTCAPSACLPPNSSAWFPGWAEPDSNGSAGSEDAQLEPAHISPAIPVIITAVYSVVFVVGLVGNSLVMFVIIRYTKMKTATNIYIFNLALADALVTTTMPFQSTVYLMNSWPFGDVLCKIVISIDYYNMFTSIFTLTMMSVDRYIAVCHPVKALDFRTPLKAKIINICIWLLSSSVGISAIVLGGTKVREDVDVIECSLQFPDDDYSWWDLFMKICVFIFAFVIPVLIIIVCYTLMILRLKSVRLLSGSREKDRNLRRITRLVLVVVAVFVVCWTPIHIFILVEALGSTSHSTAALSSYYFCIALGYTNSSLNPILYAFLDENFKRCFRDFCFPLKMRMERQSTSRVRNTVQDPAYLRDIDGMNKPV

| SMILES | Kd (KOPr [1]) | Kd (MOPr [4]) | Kd (DOPr [5]) | further results |
| --- | --- | --- | --- | --- |
| CN1CC[C@]23c4c5ccc(O)c4O[C@H]2C2=C(C[C@H](CCO)C(=O)N2Cc2ccccc2)C[C@@]3(O)[C@H]1C5 [5f] | 16.8 nM | – | – | – |
| Oc1ccc2c3c1O[C@H]1c4ncccc4C[C@@]4(O)[C@@H](C2)N(CC2CC2)CC[C@]314 [7b] | – | – | – | fold lower MOPr antagonist potency than 5k (MOPr [2]): 800 fold; Kd (MOPr [3]): 164 nM |
| C[C@@H]1CC2=C([C@@H]3Oc4c(O)ccc5c4[C@@]34CCN(CC3CC3)[C@H](C5)[C@]4(O)C2)N(Cc2ccccc2)C1=O [5g] | 0.23 nM | 0.5 nM | 0.23 nM | – |
| O=C1[C@@H](CCO)CC2=C([C@@H]3Oc4c(O)ccc5c4[C@@]34CCN(CC3CC3)[C@H](C5)[C@]4(O)C2)N1Cc1ccccc1 [5j] | 2.22 nM | 1.62 nM | 0.93 nM | – |
| CN1C(=O)CCC2=C1[C@@H]1Oc3c(O)ccc4c3[C@@]13CCN(C)[C@H](C4)[C@]3(O)C2 [5a] | 392 nM | – | – | – |
| C[C@H]1CC2=C([C@@H]3Oc4c(O)ccc5c4[C@@]34CCN(CC3CC3)[C@H](C5)[C@]4(O)C2)N(Cc2ccccc2)C1=O [5h] | 2.03 nM | 0.6 nM | 0.57 nM | – |
| O=C1CCC2=C([C@@H]3Oc4c(O)ccc5c4[C@@]34CCN(CC3CC3)[C@H](C5)[C@]4(O)C2)N1CC1CCCCC1 [5n, 1′-Cyclohexylmethyl-17-cyclopropylmethyl-6,7-didehydro-4,5-epoxy-4′,5′-dihydro-3,14-dihydroxy-pyrido[2,3: 6,7-]morphinan-6(1H)-one] | 0.48 nM | 0.27 nM | – | – |
| CN1C(=O)[C@@H](CCO)CC2=C1[C@@H]1Oc3c(O)ccc4c3[C@@]13CCN(C)[C@H](C4)[C@]3(O)C2 [5d] | 2140 nM | – | – | – |
| Cc1[nH]c2c(c1Cc1ccccc1)C[C@@]1(O)[C@H]3Cc4ccc(O)c5c4[C@@]1(CCN3CC1CC1)[C@H]2O5 [6b] | – | – | – | DOPr antagonist selectivity over both MOPr and KOPr (DOPr [6]): 50 fold |
| CN1CC[C@]23c4c5ccc(O)c4O[C@H]2c2ncccc2C[C@@]3(O)[C@H]1C5 [7a, reference compound] | – | – | – | fold lower MOPr affinity than 5b (MOPr [7]): 27 fold; fold lower KOPr affinity than 5b (KOPr [8]): 130 fold; fold lower DOPr affinity than 5b (DOPr [9]): 20 fold; EC50 (MOPr [10]): 3000 nM |
| CN1C(=O)[C@H](CCO)CC2=C1[C@@H]1Oc3c(O)ccc4c3[C@@]13CCN(C)[C@H](C4)[C@]3(O)C2 [5c] | 321 nM | – | – | – |
| O=C1CCC2=C([C@@H]3Oc4c(O)ccc5c4[C@@]34CCN(CC3CC3)[C@H](C5)[C@]4(O)C2)N1Cc1ccccc1 [5k, 1′-Benzyl-17-cyclopropylmethyl-6,7-didehydro-4,5-epoxy-4′,5′-dihydro-3,14-dihydroxy-pyrido[2,3: 6,7-]morphinan-6(1H)-one] | 0.13 nM | 0.2 nM | – | fold more potent as KOPr antagonist than 17-methyl equivalent (KOPr [1]): over 160 fold |
| CCOC(=O)Cc1c2c(n(Cc3ccccc3)c1O)[C@@H]1Oc3c(O)ccc4c3[C@@]13CCN(CC1CC1)[C@H](C4)[C@]3(O)C2 [4b] | 4.3 nM | 6.61 nM | 6.79 nM | – |
| CN1CC[C@]23c4c5ccc(O)c4O[C@H]2C2=C(CCC(=O)N2Cc2ccccc2)C[C@@]3(O)[C@H]1C5 [5b] | 21.3 nM | – | – | fold lower binding affinity at KOPr than at MOPr (KOPr [8]; ratio of Ki, KOPr vs MOPr): ~6 fold; fold lower binding affinity at DOPr than at MOPr (DOPr [9]; ratio of Ki, DOPr vs MOPr): around 3 fold; %stim DOPr (DOPr [5]; % stimulation relative to the standard DPDPE): 94% |
| O=C1[C@H](CCO)CC2=C([C@@H]3Oc4c(O)ccc5c4[C@@]34CCN(CC3CC3)[C@H](C5)[C@]4(O)C2)N1Cc1ccccc1 [5i] | 0.73 nM | 0.35 nM | 0.47 nM | fold more potent as KOPr antagonist than 17-methyl equivalent (KOPr [1]): 40 fold |
| CN1CC[C@]23c4c5ccc(O)c4O[C@H]2C2=C(C[C@@H](CCO)C(=O)N2Cc2ccccc2)C[C@@]3(O)[C@H]1C5 [5e] | 29.3 nM | 32.9 nM | – | – |

From paper PMC4112151 (Bioorganic & medicinal chemistry, 2014)
